Two molecules from publication PMC8596843, “Platinum Cyclooctadiene Complexes with Activity against Gram‐positive Bacteria” (Chemmedchem, 2021) can be followed below.

Data set [1] has as its system HEK-293 ATCC CRL-1573 human embryonic kidney cells. Type of data set: cell-based. The protocol: As part of the CO‐ADD screening, all compounds that show any activity against a microbial strain are evaluated for their cytotoxicity against human embryonic kidney cells (HEK‐293) and for haemolysis against human red blood cells. None of the compounds tested for cytotoxicity (Pt1‐9 and Pd1) caused any significant cell death up to concentrations of 100 μM. […] We have also observed higher IC50 values for the methylated complexes Pt3 and Pt4 against HeLa cells in previous work.[16] […]
(§1) inhibitors as positive control.
(§2) Tamoxifen (Sigma T5648) was used
(§3) as internal control on each plate.
in a Neubauer haemocytometer. […]

For data set [2], the system named is S. aureus ATCC 43300 MRSA. In words: MIC in the presence of human serum (serum reversal). The following applies: 50% serum. Type of data set: cell-based, Staphylococcus aureus. The source says:
(§4) To obtain some initial insight into the apparent disparity between in vitro and in vivo results, we repeated the MIC experiments against four selected Gram‐positive strains in the presence of 10 % or 50 % human serum (Table S3). Pt1 and Pt2 maintained some antibacterial activity against B. subtilis in the presence of 10 % serum, but a complete loss of activity was observed against MRSA and GISA (50 % serum), and VRE (10 % serum). […] Systemic administration is therefore unlikely to be a suitable administration route for this class of compounds unless an alternative formulation that can prevent serum binding (e. g. by lipid or nanoparticle encapsulation) can be found. […] Further in vivo studies should therefore focus on more suitable disease models. […]
(§5) Antibacterial minimum inhibitory concentration (MIC) assay
(§6) concentration. (in-house screening)
(§7) Bacto Laboratories 212322) at 37 °C overnight.
(§8) The resultant mid-log phase cultures were diluted
(§9) Gram-negative and Gram-positive bacteria, respectively.
(§10) final concentration range of 0.8 – 100 µM.
(§11) inhibitors as positive control. […]

The test system of a further data set is S. aureus NRS 17 GISA. The data set is described as above. Type of data set: cell-based, Staphylococcus aureus. To be noted: 50% serum.
Text: as §4, §5, §6, §7, §8, §9, §10, §11

Data set [3] concerns E. faecium ATCC 51559 MDR, VRE. The description is as above. Type of data set: cell-based, Enterococcus faecium. The following applies: 10% serum.
Text: as §4, §5, §6, §7, §8, §9, §10, §11

For data set [4], the system named is E. coli lpxC (non‐efficient lipid A production mutant). In words: MIC against E. coli membrane mutants. Type of data set: cell-based, Escherichia coli. To be noted: Table S2. The protocol: as §5, §6, §7, §8, §9, §10, §11
The subject of data set [5] is B. subtilis ATCC 6051 type strain. Put plainly: MIC in the presence of human serum (serum reversal). Type of data set: cell-based, Bacillus subtilis. To be noted: 10% serum.
Text: as §4, §5, §6, §7, §8, §9, §10, §11

Data set [6] has as its system Enterococcus faecium Clinical Isolate, VRE (VanA). Put plainly: Antibacterial MIC assay, Gram-positive panel. Type of data set: cell-based. To be noted: Table S1 panel; n=4. The protocol:
(§12) Smiles: C1C=CCCC(=CC1)C1=CCCC=CCC1.C[Pt]C.C[Pt]C […]
(§13) ATCC strains were sourced from the American Type Culture Collection and NRS strains from NARSA (Network on Antimicrobial Resistance in Staphylococcus aureus) via BEI Resources (www.beiresources.org), with clinical MSSA and MRSA isolates from Prof Graeme Nimmo, Queensland […]
(§14) Health Central Pathology. […]
as §5
(§15) Compound Assay Plate Preparation: Compounds were dissolved in DMSO at 10mM (CO-ADD screening) or 4 mM (follow up screening) and were plated in a 2-fold dose response from 20 to 0.156 µM or 200 to 0.006 µM respectively, with a maximum of 0.5% or 1% DMSO, final in the assay […]
(§16) plated in a 2-fold dose response from 200 to 0.006 µM, with a maximum of 1 % DMSO, final in the assay concentration. (in-house screening)
(§17) For all the bacterial assays, each strain was cultured in Cation-adjusted Mueller Hinton broth (CAMHB; Bacto Laboratories 212322) at 37 °C overnight. A sample of each culture was then diluted 40-fold in fresh CAMHB and incubated at 37 °C for 1.5–3 h. The resultant mid-log phase cultures were diluted with CAMHB (CFU mL−1 measured by OD600), then added to each well of the compound-containing plates (384-well non-binding surface (NBS) plates; Corning CLS3640), giving a cell density of 5 × 10^5 CFU mL−1 and a total volume of 50 μL. Plates were covered and incubated at 37 °C for 18 h without shaking. Inhibition of bacterial growth was determined measuring absorbance at 600 nm (OD600), using media only as negative control and bacteria without inhibitors as positive control. MIC values were determined as the lowest concentration at which the growth was inhibited at ≥80%. Colistin sulfate (Sigma C4461) and vancomycin HCl (Sigma 861987) were used as internal controls on each plate for Gram-negative and Gram-positive bacteria, respectively. […]

Data set [7] deals with Enterococcus faecalis Clinical Isolate, VRE (VanB). Put plainly: Antibacterial MIC assay, Gram-positive panel. The following applies: Table S1 panel; n=4. Type of data set: cell-based. On the procedure:
as §12, §13, §14, §5, §15, §16, §17

Data set [8] relates to Enterococcus faecium ATCC 51559, MDR, VRE (VanA). In words: Antibacterial MIC assay, Gram-positive panel. Type of data set: cell-based. The following applies: Table S1 panel; n=2. On the procedure:
as §12, §13, §14, §5, §15, §16, §17

Data set [9] deals with Bacillus subtilis ATCC 6051, type strain. In words: Antibacterial MIC assay, Gram-positive panel. Type of data set: cell-based. The following applies: Table S1 panel; n=2. The protocol: as §12, §13, §14, §5, §15, §16, §17
For data set [10], the system named is Enterococcus faecalis ATCC 29212, control strain. Put plainly: Antibacterial MIC assay, Gram-positive panel. Type of data set: cell-based. To be noted: Table S1 panel; n=4. The protocol:
as §12, §13, §14, §5, §15, §16, §17

The test system of data set [11] is Enterococcus faecium ATCC 35667, type strain. Put plainly: Antibacterial MIC assay, Gram-positive panel. Type of data set: cell-based. To be noted: Table S1 panel; n=4. The protocol: as §12, §13, §14, §5, §15, §16, §17
The subject of data set [12] is Staphylococcus epidermidis ATCC 14990, type strain. Put plainly: Antibacterial MIC assay, Gram-positive panel. Type of data set: cell-based. The following applies: Table S1 panel; n=4. On the procedure:
as §12, §13, §14, §5, §15, §16, §17

For another data set, the system named is human red blood cells. In words: Haemolysis assay. Type of data set: cell-based. To be noted: for Haemolysis HC10: concentration inducing 10 % haemolysis. The protocol:
As part of the CO‐ADD screening, all compounds that show any activity against a microbial strain are evaluated for their cytotoxicity against human embryonic kidney cells (HEK‐293) and for haemolysis against human red blood cells. None of the compounds tested for cytotoxicity (Pt1‐9 and Pd1) caused any significant cell death up to concentrations of 100 μM. […] We have also observed higher IC50 values for the methylated complexes Pt3 and Pt4 against HeLa cells in previous work.[16]
as §8, §9, §10, §1, §2, §3
in a Neubauer haemocytometer.
incubated for 1 h at 37 °C, without shaking.
HC10 and HC50 (concentration at which 10%
for top, bottom and slope using Prism 8. […]

Data set [13] has as its system Staphylococcus aureus VRS 1, VRSA (VanA). In words: Antibacterial MIC assay, Gram-positive panel. Type of data set: cell-based. The following applies: Table S1 panel; n=4.
Text: (§18) Bis(dimethyl-η4)-((1Z,1'E,5Z,5'E)-(1,1'-bi(cyclooctadiene))diplatinum(II) (Pt14) Smiles: C1C=CCCC(=CC1)C1=CCCC=CCC1.C[Pt]C.C[Pt]C
(§19) InChIKey: PHIWIZAHOBWKFJ-HPCBIOCFSA-N
(§20) Link to selected data that was repeated to approve the identity of the compounds: https://dx.doi.org/10.14272/PHIWIZAHOBWKFJ-HPCBIOCFSA-N.1
as §13, §14, §5, §15, §16, §17

Data set [14] concerns Staphylococcus aureus ATCC 25923, MSSA. Put plainly: Antibacterial MIC assay, Gram-positive panel. Type of data set: cell-based. The following applies: Table S1 panel; n=4.
Text: as §18, §19, §20, §13, §14, §5, §15, §16, §17

A word on the CC50: it is the concentration at which the toxic effect on the cells reaches its halfway point. A high value points to lower toxicity to the cells. A word on the MIC: it is the least concentration at which growth counts as inhibited.

In the case of `C1=C\CC/C=C\CC/1.[Cl][Pd][Cl]` [Pd1], in data set [1], the CC50 is greater than 100 µM. For the same molecule, the MIC in the presence of human serum (in [2]; with S. aureus NRS 17 GISA; in data set [3]; in [5]) was greater than 200 µM in each case. This molecule returned an MIC E. coli lpxC in data set [4] greater than 200 µM. Also, the MIC is greater than 200 µM in data set [6]; greater than 200 µM in data set [7]; 200 µM in data set [8]; greater than 200 µM in [9]; greater than 200 µM in data set [10]; greater than 200 µM in data set [11]. The figures for the MIC in [12], in [13] and in data set [14] were 100 µM, greater than 200 µM and 200 µM, respectively. Besides, the “Haemolysis HC10” value in the data set on human red blood cells worked out at 7.76 µM. Moreover, the “Haemolysis HC50” value in the data set with human red blood cells (concentration inducing 50 % haemolysis) was 10.14 µM.

Turning to `CC[C@H](C)[C@H](NC(=O)CN)C(=O)NCC(=O)N[C@@H](C)C(=O)N[C@H](C(=O)N[C@@H](CC(C)C)C(=O)N[C@@H](CCCCN)C(=O)N[C@H](C(=O)N[C@@H](CC(C)C)C(=O)N[C@H](C(=O)N[C@H](C(=O)NCC(=O)N[C@@H](CC(C)C)C(=O)N1CCC[C@H]1C(=O)N[C@@H](C)C(=O)N[C@@H](CC(C)C)C(=O)N[C@H](C(=O)N[C@@H](CO)C(=O)N[C@@H](Cc1c[nH]c2ccccc12)C(=O)N[C@H](C(=O)N[C@@H](CCCCN)C(=O)N[C@@H](CCCNC(=N)N)C(=O)N[C@@H](CCCCN)C(=O)N[C@@H](CCCNC(=N)N)C(=O)N[C@@H](CCC(N)=O)C(=O)N[C@@H](CCC(N)=O)C(N)=O)[C@@H](C)CC)[C@@H](C)CC)[C@@H](C)O)[C@@H](C)O)C(C)C)C(C)C` [Melittin, reference compound], the “Haemolysis HC10” value in the data set on human red blood cells came out at 1.15 µM.
